# pKi: −log10 of the molar value.
# Experiments:
# A1 receptors [1] = target: T1, A1 receptors (Rattus norvegicus, UniProt P25099); assay: Binding on A1 receptors, rat brain synaptosomial membranes, [3H]-DPCPX; conditions: 0.3 nM [3H]-DPCPX, 1 h, 25° C., pH 7.4
# T1 construct: preparations of synaptosomial membranes from rat brain; from tissue; host or cells: rat brain synaptosomal membranes
# T1 sequence (P25099 1-326): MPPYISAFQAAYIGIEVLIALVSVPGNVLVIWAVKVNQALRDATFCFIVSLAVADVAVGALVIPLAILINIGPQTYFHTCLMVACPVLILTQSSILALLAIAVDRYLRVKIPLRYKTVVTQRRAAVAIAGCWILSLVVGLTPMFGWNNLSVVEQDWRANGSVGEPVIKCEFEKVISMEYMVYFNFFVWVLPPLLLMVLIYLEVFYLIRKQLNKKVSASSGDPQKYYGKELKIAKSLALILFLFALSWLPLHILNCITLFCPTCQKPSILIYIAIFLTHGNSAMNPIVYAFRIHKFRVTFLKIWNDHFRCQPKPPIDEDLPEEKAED
# Procedure: (§1) Binding on the adenosine receptors.
# The binding on A1 receptors has been carried out according to the method described in Naunyn-Schmied. Arch. Pharmacol. 1987, 336, 204 on preparations of synaptosomial membranes from rat brain by incubating 200 μg of membrane proteins for 1 h at 25° C. with the substance to be tested and 0.3 nM [^3 H]-DPCPX in 400 μl of 50 mM Tris.HCl pH=7.4. The non-specific binding has been determined with […].
# (§2) The incubations were blocked by filtration by means of a cell-harvester and, after completion of the separation of the bound from the free, the radioactivity contents were evaluated by liquid scintillation. The concentration-inhibition curves were obtained by assaying the receptor displacement at at least ten different concentrations of the test substance (all the assays were carried out in triplicate). The tested substances were dissolved in dimethyl sulphoxide and diluted in 50 mM Tris.HCl buffer pH=7.4. The IC50 values have been determined by non-linear regression curves and transformed into Ki values according to the Cheng-Prusoff equation.
# Forced swim test = type: in vivo, Male ablino CD 1 mice; conditions: 1 h before immersion
# Procedure: Forced swim test The test described by R. D. Porsolt et al. in Arch.Int.Pharmacodyn.Ther. 1977, 229, 327, has been carried out which is widely used as an animal model for the study of the antidepressant activity of new drugs. Male ablino CD 1 mice weighing 25-35 g were used. One hour before immersion in water, the test compound is intraperitoneally (i.p.) administered to the animal; the vehicle is administered to the control animals. The duration of permanence in water is 6'; from the 2nd to the 6th minute the time is measured during which the animal remains motionless. […] As the reference substance the tricyclic antidepressant drug desipramine was used.
# Tail suspension test = type: in vivo, Male albino CD 1 mice; conditions: half an hour before test
# Procedure: Tail suspension test The test described by L. Steru, et al. in Psychopharmacology 1985, 85, 367, also widely used as an animal model for the screening of antidepressant activity has been carried out. Male albino CD 1 mice weighing 25-35 g were used. Half an hour before the test, the animal is administered the test compound by the i.p. route; the control animals are administered the vehicle. The mouse is suspended from a horizontal bar at about 40 cm from the support plane by means of an adhesive tape applied at the end of the tail and secured to a hook. […] As the reference substance the tricyclic antidepressant drug desipramine was used.
# A1 receptors [2] = target: T2, A1 receptors (Rattus norvegicus, UniProt P30543); assay: Binding on receptors (printed A1) of rat striatal membranes, [3H]-CGS21680 + CPA; conditions: 5 nM [3H]-CGS21680, 50 nM CPA, 1 h, 25° C.
# T2 construct: preparations of rat striatal membranes; from tissue; host or cells: rat striatal membranes
# Procedure: as §1
# The binding on […] receptors has been carried out according to the method described in FASEB J. 1989, 3, A1047 on preparations of rat striatal membranes by incubating 200 μg of membrane proteins for 1 h at 25° C. with the substance to be tested, 5 nM [^3 H]-CGS21680 and 50 nM CPA. The non-specific binding has been determined with 100 nM CPA.
# as §2
# adenosine receptors = conditions: cited from earlier work
# T2 sequence (P30543 whole entry): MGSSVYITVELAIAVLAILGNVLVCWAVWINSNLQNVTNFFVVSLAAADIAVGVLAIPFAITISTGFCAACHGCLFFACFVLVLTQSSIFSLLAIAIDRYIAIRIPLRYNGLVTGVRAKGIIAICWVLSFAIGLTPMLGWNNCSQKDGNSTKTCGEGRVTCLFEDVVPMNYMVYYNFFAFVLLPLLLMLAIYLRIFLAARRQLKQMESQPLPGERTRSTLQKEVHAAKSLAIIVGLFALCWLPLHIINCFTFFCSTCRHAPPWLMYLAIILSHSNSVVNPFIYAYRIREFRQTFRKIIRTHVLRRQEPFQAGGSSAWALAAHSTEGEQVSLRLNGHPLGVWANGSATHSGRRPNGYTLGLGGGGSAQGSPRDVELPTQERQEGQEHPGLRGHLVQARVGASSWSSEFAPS
smiles,measurement,setting,value
"CCC(CC)Nc1nc2ccccc2n2c(C)cnc12 [COMPOUND EX. 5, 4-(1-ethylpropylamino)-1-methylimidazo[1,2-a] quinoxaline]",pKi,A1 receptors [1],7.27
"Cc1cnc2c(NC3CCCC3)nc3ccccc3n12 [COMPOUND EX. 9, 4-cyclopentylamino-1-methyl imidazo [1,2-a]quinoxaline]",% variation immobility time vs. C.,Forced swim test; 0.001 mg/kg i.p.,-32.8%
same,% variation immobility time vs. C.,Forced swim test; 0.01 mg/kg i.p.,-45.3%
same,pKi,A1 receptors [1],8.10
same,% variation immobility time vs. C.,Tail suspension test; 0.001 mg/kg i.p.,-26.7%
same,% variation immobility time vs. C.,Tail suspension test; 0.01 mg/kg i.p.,-41.1%
same,% variation immobility time vs. C.,Tail suspension test; 0.1 mg/kg i.p.,-64.3%
same,pKi,A1 receptors [2],5.60
"Cc1cnc2c(N3CCCCC3)nc3ccccc3n12 [COMPOUND EX. 13, 1-methyl-4-piperidinylimidazo[1,2-a]quinoxaline]",% variation immobility time vs. C.,Forced swim test; 0.1 mg/kg i.p.,-23.5%
same,% variation immobility time vs. C.,Forced swim test; 1 mg/kg i.p.,-70.7%
"Cc1cnc2c(N3CCN(C)CC3)nc3ccccc3n12 [COMPOUND EX. 16, 1-methyl-4(N'-methylpiperazinyl)imidazo[1,2-a]quinoxaline]",% variation immobility time vs. C.,Forced swim test; 0.1 mg/kg i.p.,-22.4%
same,% variation immobility time vs. C.,Forced swim test; 1 mg/kg i.p.,-51.4%
"Clc1ccc2nc(NC3CCCC3)c3nccn3c2c1 [COMPOUND EX. 18, 4-cyclopentylamino-8-chloroimidazo[1,2-a]quinoxaline]",% variation immobility time vs. C.,Forced swim test; 1 mg/kg i.p.,-42.3%
same,% variation immobility time vs. C.,Forced swim test; 10 mg/kg i.p.,-52.8%
same,pKi,A1 receptors [1],7.63
"Cc1cnc2c(NC3CCCCC3)nc3ccc(Cl)cc3n12 [COMPOUND EX. 21, 4-cyclohexylamino-8-chloro-1-methylimidazo[1,2-a]quinoxaline]",% variation immobility time vs. C.,Forced swim test; 0.001 mg/kg i.p.,-33.0%
same,% variation immobility time vs. C.,Forced swim test; 0.01 mg/kg i.p.,-48.6%
"Clc1cc2nc(NC3CCCC3)c3nccn3c2cc1Cl [COMPOUND EX. 22, 4-cyclopentylamino-7,8-dichloroimidazo[1,2-a]quinoxaline]",pKi,A1 receptors [1],7.58
Fc1ccc2nc(NC3CCCC3)c3nccn3c2c1 [COMPOUND EX. 25],pKi,A1 receptors [1],7.08
"CNCCCN1c2ccccc2CCc2ccccc21 [DESIPRAMINE, reference compound]",% variation immobility time vs. C.,Forced swim test; 7.5 mg/kg i.p.,-10.4%
same,% variation immobility time vs. C.,Forced swim test; 30 mg/kg i.p.,-41.4%
same,% variation immobility time vs. C.,Tail suspension test; 4 mg/kg i.p.,-21.3%
same,% variation immobility time vs. C.,Tail suspension test; 16 mg/kg i.p.,-62.4%
"Cn1c(=O)c2c(ncn2C)n(C)c1=O [caffeine, 1,3,7-trimethylxanthine]",affinity to the adenosine receptors,adenosine receptors,low affinity
"Cn1c(=O)c2[nH]cnc2n(C)c1=O [theophylline, 1,3-dimethylxanthine]",affinity to the adenosine receptors,adenosine receptors,low affinity
